Assay results: US4547492A, “1-N-(ω-Amino-α-hydroxyalkanoyl-2',3'-dideoxykanamycin A and pharmaceutical composition containing same” (Zaidan Hojin Biseibutsu Kagaku Kenkyu Kai, priority 1983, dated 1985)
≈ marks a conversion by molar mass, not a printed value. Read-outs that look alike come from different tables or passages of the source.

Key:
[1] = tested on: Bacillus subtilis PCI 219; experiment: MIC, serial dilution on nutrient agar; type: cell-based; details: PCI219, B. subtilis PCI 219, 37° C., 18 hours
Procedure: (§1) For comparison purpose, the minimum inhibitory concentrations (MIC.) of 1-N-(L-4-amino-2-hydroxybutyryl)-kanamycin A, namely amikacin and of 2',3'-dideoxykanamycin A (abbreviated as DKA) are also shown in Table 1.
(§2) The minimum inhibitory concentrations (mcg/ml) of these kanamycin A derivatives against the various bacteria were determined according to a standard serial dilution method on a nutrient agar medium at 37° C., the estimation being made after 18 hours incubation.

Escherichia coli ML 1629 = experiment: MIC, serial dilution on nutrient agar; type: cell-based
Procedure: as §1, §2

Escherichia coli ML 1630 = experiment: MIC, serial dilution on nutrient agar; type: cell-based; details: ML1630, E. coli ML 1630, 37° C., 18 hours
Procedure: as §1, §2

Escherichia coli ML R 81 = experiment: MIC, serial dilution on nutrient agar; type: cell-based
Procedure: as §1, §2

Proteus rettgeri GN 311 = experiment: MIC, serial dilution on nutrient agar; type: cell-based; details: Providencia rettgeri, GN311, 37° C., 18 hours
Procedure: as §1, §2

[2] = tested on: Pseudomonas aeruginosa A3; experiment: MIC, serial dilution on nutrient agar; type: cell-based; details: P. aeruginosa A3, 37° C., 18 hours
Procedure: as §1, §2

[3] = tested on: Pseudomonas aeruginosa B-13; experiment: MIC, serial dilution on nutrient agar; type: cell-based
Procedure: as §1, §2

[4] = tested on: Pseudomonas aeruginosa H9; experiment: MIC, serial dilution on nutrient agar; type: cell-based
Procedure: as §1, §2

[5] = tested on: Pseudomonas aeruginosa K-Ps 102; experiment: MIC, serial dilution on nutrient agar; type: cell-based
Procedure: as §1, §2

[6] = tested on: Serratia marcescens I-0111; experiment: MIC, serial dilution on nutrient agar; type: cell-based
Procedure: as §1, §2

[7] = tested on: Serratia marcescens I-0115; experiment: MIC, serial dilution on nutrient agar; type: cell-based
Procedure: as §1, §2

[8] = tested on: Serratia marcescens I-0139; experiment: MIC, serial dilution on nutrient agar; type: cell-based; details: I0139, S. marcescens I-0139, 37° C., 18 hours
Procedure: as §1, §2

[9] = tested on: Serratia marcescens I-0162; experiment: MIC, serial dilution on nutrient agar; type: cell-based
Procedure: as §1, §2

Serratia sp. 4 = experiment: MIC, serial dilution on nutrient agar; type: cell-based; details: 37° C., 18 hours
Procedure: as §1, §2

[10] = tested on: Staphylococcus aureus 209P; experiment: MIC, serial dilution on nutrient agar; type: cell-based; details: S. aureus 209P, 37° C., 18 hours
Procedure: as §1, §2

[11] = tested on: Staphylococcus aureus Ap 01; experiment: MIC, serial dilution on nutrient agar; type: cell-based
Procedure: as §1, §2

Escherichia coli J5R11-2 = experiment: microbe, parasite or virus in culture; details: J5R112, 18 h
Procedure: as §1, §2

[12] = acute toxicity by intravenous injection in mice; details: mouse, in vivo
[13] = ML1629, E. coli ML 1629, nutrient agar, 37° C., 18 hours, read-out: MIC.
[14] = MLR81, E. coli ML R 81, nutrient agar, 37° C., 18 hours, read-out: MIC.
[15] = P. aeruginosa H9, nutrient agar, 37° C., 18 hours, read-out: MIC.
[16] = AP01, S. aureus Ap 01, nutrient agar, 37° C., 18 hours, read-out: MIC.
[17] = I0111, S. marcescens I-0111, nutrient agar, 37° C., 18 hours, read-out: MIC.
[18] = I0115, S. marcescens I-0115, nutrient agar, 37° C., 18 hours, read-out: MIC.

Row | SMILES | MIC [1] [µg/mL] | MIC (Escherichia coli ML 1629; [13]) [µg/mL] | MIC (Escherichia coli ML 1630) [µg/mL] | MIC (Escherichia coli ML R 81; [14]) [µg/mL] | MIC (Proteus rettgeri GN 311) [µg/mL] | MIC [2] [µg/mL] | MIC ([3]; B13, 18 h) [µg/mL] | MIC [4, 15] [µg/mL] | MIC ([5]; KPS102, 18 h) [µg/mL] | MIC [8] [µg/mL] | MIC ([9]; I0162, 18 h) [µg/mL] | MIC (Serratia sp. 4) [µg/mL] | MIC [10] [µg/mL] | MIC [11, 16] [µg/mL] | MIC (Escherichia coli J5R11-2) [µg/mL] | LD50 [12] [mg/kg] | MIC [6, 17] [µg/mL] | MIC [7, 18] [µg/mL] | other results
1 | NCC[C@H](O)C(=O)N[C@@H]1C[C@H](N)[C@@H](O[C@@H]2CC[C@H](O)[C@@H](CN)O2)[C@H](O)[C@H]1O[C@H]1O[C@H](CO)[C@@H](O)[C@H](N)[C@H]1O [AHDK] | 0.2 (≈ 0.361 µM) | 1.56 (≈ 2.82 µM) | 1.56 (≈ 2.82 µM) | 1.56 (≈ 2.82 µM) | 0.39 (≈ 0.704 µM) | 0.78 (≈ 1.41 µM) | 12.5 (≈ 22.6 µM) | 3.13 (≈ 5.65 µM) | 6.25 (≈ 11.3 µM) | 12.5 (≈ 22.6 µM) | 6.25 (≈ 11.3 µM) | 1.56 (≈ 2.82 µM) | 0.1 (≈ 0.181 µM) | 0.39 (≈ 0.704 µM) | 0.78 (≈ 1.41 µM) | 326 |  |  | MIC ([6]; I0111, 18 h): 6.25 µg/mL (≈ 11.3 µM); MIC ([7]; I0115, 18 h): 6.25 µg/mL (≈ 11.3 µM)
2 | NCC[C@H](O)C(=O)N[C@@H]1C[C@H](N)[C@@H](O[C@H]2O[C@H](CN)[C@@H](O)[C@H](O)[C@H]2O)[C@H](O)[C@H]1O[C@H]1O[C@H](CO)[C@@H](O)[C@H](N)[C@H]1O [Amikacin, 1-N-(L-4-amino-2-hydroxybutyryl)-kanamycin A, reference compound] | 0.39 (≈ 0.666 µM) |  | 3.13 (≈ 5.34 µM) |  | 0.39 (≈ 0.666 µM) | < 0.2 |  | 6.25 (≈ 10.7 µM) |  | 100 (≈ 171 µM) |  | 3.13 (≈ 5.34 µM) | 0.78 (≈ 1.33 µM) |  | 1.56 (≈ 2.66 µM) |  | 25 (≈ 42.7 µM) | 50 (≈ 85.4 µM) | MIC (Escherichia coli ML 1629; ML1629, 18 h): 1.56 µg/mL (≈ 2.66 µM); MIC (Escherichia coli ML R 81; MLR81, 18 h): 1.56 µg/mL (≈ 2.66 µM); MIC ([3]; B13, P. aeruginosa B-13, nutrient agar, 37° C., 18 hours, read-out: MIC.): 6.25 µg/mL (≈ 10.7 µM); MIC ([5]; KPS102, P. aeruginosa K-Ps 102, nutrient agar, 37° C., 18 hours, read-out: MIC.): 6.25 µg/mL (≈ 10.7 µM); MIC ([9]; I0162, S. marcescens I-0162, nutrient agar, 37° C., 18 hours, read-out: MIC.): 50 µg/mL (≈ 85.4 µM); MIC ([11]; AP01, 18 h): 1.56 µg/mL (≈ 2.66 µM)
3 | NC[C@H]1O[C@H](O[C@H]2[C@H](O)[C@@H](O[C@H]3O[C@H](CO)[C@@H](O)[C@H](N)[C@H]3O)[C@H](N)C[C@@H]2N)CC[C@@H]1O [DKA, 2',3'-dideoxykanamycin A] | 0.39 (≈ 0.862 µM) | 1.56 (≈ 3.45 µM) | 3.13 (≈ 6.92 µM) | 3.13 (≈ 6.92 µM) |  | 1.56 (≈ 3.45 µM) | 12.5 (≈ 27.6 µM) |  | 6.25 (≈ 13.8 µM) |  |  |  | 1.56 (≈ 3.45 µM) | 3.13 (≈ 6.92 µM) | 3.12 (≈ 6.89 µM) |  |  |  | MIC ([4]; H9, 18 h): 6.25 µg/mL (≈ 13.8 µM)
4 | NC[C@H](O)C(=O)N[C@@H]1C[C@H](N)[C@@H](O[C@@H]2CC[C@H](O)[C@@H](CN)O2)[C@H](O)[C@H]1O[C@H]1O[C@H](CO)[C@@H](O)[C@H](N)[C@H]1O [ISDK, 1-N-(L-3-amino-2-hydroxy-propionyl)-2',3'-dideoxykanamycin A] | 0.39 (≈ 0.723 µM) | 1.56 (≈ 2.89 µM) | 3.13 (≈ 5.8 µM) | 1.56 (≈ 2.89 µM) | 0.39 (≈ 0.723 µM) | 0.78 (≈ 1.45 µM) | 12.5 (≈ 23.2 µM) | 3.13 (≈ 5.8 µM) | 6.25 (≈ 11.6 µM) | 6.25 (≈ 11.6 µM) | 6.25 (≈ 11.6 µM) | 1.56 (≈ 2.89 µM) | 0.2 (≈ 0.371 µM) | 0.78 (≈ 1.45 µM) | 0.78 (≈ 1.45 µM) | 240 | 3.13 (≈ 5.8 µM) | 3.13 (≈ 5.8 µM) | 
